Results from US20010004643A1, “Pharmaceutical composition with sotalol combination and their use in treatment of cardiac ailments” (priority 1999, published 2001).
“Also recorded” adds a separate entry of the source. Marks after values point to notes of the source that are not given here.

Key:
[1] = test system: ouabain induced arrhythmia (VT, VF, mortality); assay: Ouabain induced arrhythmia model in guinea pig; assay type: in vivo; conditions: for actual incidence of mortality (value in parenthesis): 60 min; for actual incidence of mortality (value in parenthesis) / actual incidence of VF (value in parenthesis) / actual incidence of VT (value in parenthesis): number of animals of the group; for % INCIDENCE OF MORTALITY: mortality at 60 min; for deaths due to conduction block (60 min), actual incidence (value in parenthesis) / deaths due to tachyarrhythmia (60 min), actual incidence (value in parenthesis): number of animals; for % INCIDENCE OF VF / % INCIDENCE OF VT: ouabain 240 μg/kg in three doses, observed one hour; for DEATHS DUE TO CONDUCTION BLOCK (60 MIN) Percentage / DEATHS DUE TO TACHYARRHYTHMIA (60 MIN) Percentage: percentage deaths out of total mortality; for cause of deaths / mortality compared with control groups: no dose stated
From the text: Method: Guinea pigs (Dunken Hartley) of either sex weighing between 400 and 500 g were used for the study. The animals were anesthetized with urethane (1.25 g/kg. i.p.). The left common carotid artery and left jugular vein were cannulated for arterial blood pressure monitoring and intravenous access respectively. Lead II electrocardiogram, arterial blood pressure, mean arterial blood pressure (MABP), heart rate were monitored throughout the experiment.
After initial surgical preparations and allowing 30 minutes for the animal to stabilise the first dose of ouabain (90 μg/kg) was administered over a period of one minute. After the interval of thirty minutes, second dose of ouabain (60 μg/kg) was administered over a period of one minute. One minute after this dose, 0.5 ml saline (in control experiments) was administered over a period of one minute. After an interval of 10 minutes a third dose of ouabain (90 μg/kg) was administered over a period of one minute. […] The test compounds were administered to animals in test group in place of saline to evaluate their antiarrhythmic potential. From the ECG recordings, the incidence of VT, VF and mortality were recorded. The doses of ratios of sotalol isomers studied were 0.1, 0.5 and 2.5 mg/kg.
Interpretation of ECG recordings: Minor disturbance in rhythm was not considered while evaluating ventricular tachyarrhythmias. A run of more than 3 ventricular ectopic beats having wide QRS complexes associated with partial haemodynamic collapse was considered as Ventricular Tachycardia (VT). Total morphological irregularity of repetitive complexes for at least six cycles associated with complete haemodynamic collapse was considered as Ventricular Fibrillation (VF). Successful arrhythmia protection was defined as no occurrence of VT and VF from the injection of saline/test drug till the end of the experiment.
Statistics: Chi square test with continuity correction at 95% confidence limit was applied to find out the statistical significance between control and test groups for incidence of VT, VF and mortality. Whenever, any of the value in a cell was less than 5, Fischer's exact probability test was used.
Results: Different ratios of sotalol in the dose range from 0.02 mg/kg to 12.5 mg/kg were studied in individual groups of animals. In all 18 groups were studied and at least 6 animals were used in each group. In control animals ouabain 240 μg/kg in three divided doses induced reproducible ventricular tachyarrhythmias in guinea pigs. It was observed that ventricular arrhythmias appeared after the administration of the third dose. Guinea pigs which responded early i.e. before or within 1 min. of administration of the second dose, were considered early responders and were not included in the study. […] In the study, control experiments were carried out randomly interspersed in test groups. Among the 42 control animals the incidence of VT was 81%, incidence of VF was 71.4% and the incidence of mortality at 60 minutes was 61.9%.

[2] = test system: beta adrenergic blockade, isolated right auricle preparation of rabbit; assay: Beta blocking potency (pA2 against isoprenaline) in isolated rabbit right auricle; conditions: isoprenaline chronotropic response, Schild's plot
Protocol: Estimation of the beta blockade of various ratios of d- and l- isomers of sotalol was carried out in the isolated right auricle preparation of rabbit. The spontaneously beating right atrium was dissected and mounted in a 20 ml tissue bath. The resting tension on the atria was set at 1 g. The contractions were recorded using a force displacement transducer. The spontaneous contractions of the right atria were recorded isometrically and the heart rate was obtained as a derived parameter using a ratemeter that gave the output in beats per minute. Six different ratios of d and l isomers were investigated (1:1, 2:1, 3:1, 4:1, 5:1 and 1:0). Dose-response-curves (DRC) for isoprenaline in the isolated atria, using the chronotropic response were determined by cumulative addition of isoprenaline. The pA2 values of each of the ratios were estimated using the classical Schild's plot (Schild, 1957) and the values are shown in Table 1.

[3] = guinea pig, in vivo, listed as 2:1 ratio (d:l)

Row | SMILES | actual incidence of mortality (value in parenthesis) ([1]; 0.5 mg/kg) | % INCIDENCE OF MORTALITY ([1]; 0.5 mg/kg) | deaths due to conduction block (60 min), actual incidence (value in parenthesis) ([1]; 0.5 mg/kg) | deaths due to tachyarrhythmia (60 min), actual incidence (value in parenthesis) ([1]; 0.5 mg/kg) | actual incidence of VF (value in parenthesis) ([1]; 0.5 mg/kg) | actual incidence of VT (value in parenthesis) ([1]; 0.5 mg/kg) | % INCIDENCE OF VF ([1]; 0.5 mg/kg) | % INCIDENCE OF VT ([1]; 0.5 mg/kg) | DEATHS DUE TO CONDUCTION BLOCK (60 MIN) Percentage ([1]; 0.5 mg/kg) | DEATHS DUE TO TACHYARRHYTHMIA (60 MIN) Percentage ([1]; 0.5 mg/kg) | protection from deaths due to tachyarrhythmias ([1]; 2.5 mg/kg) | % INCIDENCE OF MORTALITY ([1]; 2.5 mg/kg) | deaths due to conduction block (60 min), actual incidence (value in parenthesis) ([1]; 2.5 mg/kg) | deaths due to tachyarrhythmia (60 min), actual incidence (value in parenthesis) ([1]; 2.5 mg/kg) | actual incidence of VF (value in parenthesis) ([1]; 2.5 mg/kg) | actual incidence of VT (value in parenthesis) ([1]; 2.5 mg/kg) | % INCIDENCE OF VF ([1]; 2.5 mg/kg) | % INCIDENCE OF VT ([1]; 2.5 mg/kg) | DEATHS DUE TO CONDUCTION BLOCK (60 MIN) Percentage ([1]; 2.5 mg/kg) | DEATHS DUE TO TACHYARRHYTHMIA (60 MIN) Percentage ([1]; 2.5 mg/kg) | other results
1 | CC(C)NCC(O)c1ccc(NS(C)(=O)=O)cc1 (stereo not shown) [3:1 RATIO, N-[4-[1-hydroxy-2-[(1-methylethyl)amino]ethyl]phenyl] methane sulfonamide] | (3) | 37.5% | (3) | (0)* | (2) | (3)* | 25.0% | 37.5% | 100.0% | 00.0% | completely protected | 33.3% | (2) | (0) | (0)* | (0)* | 00.0% | 00.0% | 100.0% | 00.0% | actual incidence of mortality (value in parenthesis) ([1]; 0.1 mg/kg): (2); % INCIDENCE OF MORTALITY ([1]; 0.1 mg/kg): 33.3%; deaths due to conduction block (60 min), actual incidence (value in parenthesis) ([1]; 0.1 mg/kg): (1); deaths due to tachyarrhythmia (60 min), actual incidence (value in parenthesis) ([1]; 0.1 mg/kg): (1); actual incidence of VF (value in parenthesis) ([1]; 0.1 mg/kg): (4); actual incidence of VT (value in parenthesis) ([1]; 0.1 mg/kg): (4); % INCIDENCE OF VF ([1]; 0.1 mg/kg): 66.6%; % INCIDENCE OF VT ([1]; 0.1 mg/kg): 66.6%; DEATHS DUE TO CONDUCTION BLOCK (60 MIN) Percentage ([1]; 0.1 mg/kg): 50.0%; DEATHS DUE TO TACHYARRHYTHMIA (60 MIN) Percentage ([1]; 0.1 mg/kg): 50.0%; protection against ouabain induced VT ([1]; 0.5 mg/kg, listed as 3:1 ratio (d:l)): showed protection; protection against arrhythmias (VT and VF) ([1]; 2.5 mg/kg): protected; actual incidence of mortality (value in parenthesis) ([1]; 2.5 mg/kg): (2); protection against arrhythmias (VT and VF) ([1]; 2.5 mg/kg, listed as 3:1): complete protection; % INCIDENCE OF MORTALITY ([1]; 2.5 mg/kg, listed as 3:1 ratio): 33.3%; mortality ([1]; 0.5 and 2.5 mg/kg dose): low; dose at which complete protection against VT was observed ([1]; guinea pig, in vivo, listed as 3:1 ratio (d:l)): 2.5 mg/kg; cause of deaths [1]: due to conduction abnormalities; mortality compared with control groups [1]: less than that of control groups; pA2 Mean ([2]; listed as 3:1): 6.15
2 | CC(C)NCC(O)c1ccc(NS(C)(=O)=O)cc1 (stereo not shown) [2:1 RATIO, N-[4-[1-hydroxy-2-[(1-methylethyl)amino]ethyl]phenyl] methane sulfonamide] | (3) | 50.0% | (3) | (0) | (2) | (3) | 33.3% | 50.0% | 100.0% | 00.0% | completely protected | 16.6% | (1) | (0) | (0)* | (0)* | 00.0% | 00.0% | 100.0% | 00.0% | protection against VF ([1]; 0.5 mg/kg): some protection, it was not complete; protection against ouabain induced VT ([1]; 0.5 mg/kg, listed as 2:1 ratio (d:l)): some protection, it was not significant; protection against mortality ([1]; 2.5 mg/kg): protected significantly; protection against arrhythmias (VT and VF) ([1]; 2.5 mg/kg, listed as 2:1): completely protects; also recorded: complete protection; % INCIDENCE OF MORTALITY ([1]; 2.5 mg/kg, listed as 2:1): 16.6%; dose at which complete protection against VT was observed [1, 3]: 2.5 mg/kg; dose that completely protected against VF [1, 3]: 2.5 mg/kg; cause of deaths [1]: due to conduction abnormalities; mortality compared with control groups [1]: less than that of control groups; pA2 Mean ([2]; listed as 2:1): 6.28
